Data published in US4237305A, “Substituted phenylacetic acid compounds and process for preparation thereof” (Fujisawa Pharmaceutical Co., Ltd., priority 1976, dated 1980).

Assays:
[1] = tested on: Pseudomonas aeruginosa 10490; test: MIC (Minimum Inhibitory Concentration) determined by conventional method, Pseudomonas aeruginosa 10490; type: cell-based
Source text: (§1) MIC (Minimum Inhibitory Concentration) value
(§2) determined by conventional method

Escherichia coli 114 = test: MIC (Minimum Inhibitory Concentration) determined by conventional method, Escherichia coli 114; type: cell-based
Source text: as §1, §2

MIC (Minimum Inhibitory Concentration) value [1]: 25
MIC (Minimum Inhibitory Concentration) value (Escherichia coli 114): 1.6
Structure (SMILES): NC(CCOc1ccc(C(=O)C(=O)NC2CN(C(C(=O)O)c3ccc(O)cc3)C2=O)cc1)C(=O)O (centres unmarked) [d.circle.]
